Drawing on the supplement of paper PMC10307832, this text covers relative viability for seven cell lines.

Holding throughout (test): relative viability (nuclei count vs DMSO), 5 days (fraction); higher = more cells survive
Compound in one test: CO[C@H]1C[C@@H]2CC[C@@H](C)[C@@](O)(O2)C(=O)C(=O)N2CCCC[C@H]2C(=O)O[C@H]([C@H](C)C[C@@H]2CC[C@@H](OCCO)[C@H](OC)C2)CC(=O)[C@H](C)/C=C(\C)[C@@H](O)[C@@H](OC)C(=O)[C@H](C)C[C@H](C)/C=C/C=C/C=C/1C [Everolimus]
The essentials:
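Lung cancer cell lines received five library-drug doses (not always all listed) spaced by √10, pinned on vehicle-anchored 1536-well plates after an overnight stay at 37 °C. Five days later, with no medium change, nuclei were Hoechst-stained, imaged at 4× and counted with MetaXpress. Viability is treated-well nuclei relative to vehicle-well nuclei, as a median across plates. Passing plates had control CV below 25% and at least one doubling.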

Compound in the test “Everolimus + AZD7762”: CO[C@H]1C[C@@H]2CC[C@@H](C)[C@@](O)(O2)C(=O)C(=O)N2CCCC[C@H]2C(=O)O[C@H]([C@H](C)C[C@@H]2CC[C@@H](OCCO)[C@H](OC)C2)CC(=O)[C@H](C)/C=C(\C)[C@@H](O)[C@@H](OC)C(=O)[C@H](C)C[C@H](C)/C=C/C=C/C=C/1C [Everolimus] + NC(=O)Nc1cc(-c2cccc(F)c2)sc1C(=O)N[C@H]1CCCNC1 [AZD7762] (partner 0.2 µM)
In a few lines: (§1)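 Lung cancer cell lines were pin-tool dosed in 1536-well plates on the day after seeding, with either a lone drug or a fixed anchor-drug dose plus five library-drug doses (not always all listed) in √10 steps. Nuclei were counted on 4× images after 5 days. Relative viability is the ratio of treated-well to vehicle-well nuclei counts, with each value a median of duplicate plates.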

Compound in the test “Everolimus + Trametinib”: CO[C@H]1C[C@@H]2CC[C@@H](C)[C@@](O)(O2)C(=O)C(=O)N2CCCC[C@H]2C(=O)O[C@H]([C@H](C)C[C@@H]2CC[C@@H](OCCO)[C@H](OC)C2)CC(=O)[C@H](C)/C=C(\C)[C@@H](O)[C@@H](OC)C(=O)[C@H](C)C[C@H](C)/C=C/C=C/C=C/1C [Everolimus] + CC(=O)Nc1cccc(-n2c(=O)n(C3CC3)c(=O)c3c(Nc4ccc(I)cc4F)n(C)c(=O)c(C)c32)c1 [Trametinib] (partner 0.02 µM)
The essentials:
as §1

Compound in the test “Everolimus + Tozasertib”: CO[C@H]1C[C@@H]2CC[C@@H](C)[C@@](O)(O2)C(=O)C(=O)N2CCCC[C@H]2C(=O)O[C@H]([C@H](C)C[C@@H]2CC[C@@H](OCCO)[C@H](OC)C2)CC(=O)[C@H](C)/C=C(\C)[C@@H](O)[C@@H](OC)C(=O)[C@H](C)C[C@H](C)/C=C/C=C/C=C/1C [Everolimus] + Cc1cc(Nc2cc(N3CCN(C)CC3)nc(Sc3ccc(NC(=O)C4CC4)cc3)n2)n[nH]1 [Tozasertib] (partner 0.1 µM)
In a few lines:
as §1

NCI-H2087: the relative viability with Everolimus (0.01 µM) amounted to 0.814; with Everolimus (0.03162 µM), 0.903; with Everolimus (0.1 µM), 0.759; in the test with Everolimus (0.3162 µM), 0.772; with Everolimus (1 µM) it was 0.966; in the test with Everolimus + AZD7762 (first compound 0.01 µM), 1.25. Also, the relative viability with Everolimus + AZD7762 (first compound 0.03162 µM) is 1.51; with Everolimus + AZD7762 (first compound 0.1 µM), 1.2; with Everolimus + AZD7762 (first compound 0.3162 µM), 1.36; with Everolimus + AZD7762 (first compound 1 µM), 1.35; with Everolimus + Trametinib (first compound 0.01 µM), 0.158; with Everolimus + Trametinib (first compound 0.03162 µM) it was 0.137. For the same cell line, the relative viability was 0.185 with Everolimus + Trametinib (first compound 0.1 µM); 0.161 with Everolimus + Trametinib (first compound 0.3162 µM); 0.143 with Everolimus + Trametinib (first compound 1 µM); 0.256 in the test with Everolimus + Tozasertib (first compound 0.01 µM); 0.199 with Everolimus + Tozasertib (first compound 0.03162 µM); 0.198 with Everolimus + Tozasertib (first compound 0.1 µM). For the same cell line, the relative viability came to 0.218 with Everolimus + Tozasertib (first compound 0.3162 µM) and 0.174 in the test with Everolimus + Tozasertib (first compound 1 µM).
NCI-H727: the relative viability came out at 0.67 in the test with Everolimus (0.01 µM); 0.537 with Everolimus (0.03162 µM); 0.518 with Everolimus (0.1 µM); 0.608 with Everolimus (0.3162 µM); 0.552 in the test with Everolimus (1 µM); 0.482 with Everolimus + AZD7762 (first compound 0.01 µM). For the same cell line, the relative viability was 0.483 with Everolimus + AZD7762 (first compound 0.03162 µM); 0.454 with Everolimus + AZD7762 (first compound 0.1 µM); 0.565 with Everolimus + AZD7762 (first compound 0.3162 µM); 0.523 in the test with Everolimus + AZD7762 (first compound 1 µM); 0.433 in the test with Everolimus + Trametinib (first compound 0.01 µM); 0.385 in the test with Everolimus + Trametinib (first compound 0.03162 µM). Besides, the relative viability was determined as 0.337 with Everolimus + Trametinib (first compound 0.1 µM); 0.363 with Everolimus + Trametinib (first compound 0.3162 µM); 0.342 in the test with Everolimus + Trametinib (first compound 1 µM); 0.525 in the test with Everolimus + Tozasertib (first compound 0.01 µM); 0.562 with Everolimus + Tozasertib (first compound 0.03162 µM); 0.505 with Everolimus + Tozasertib (first compound 0.1 µM). Moreover, the relative viability was found to be 0.713 in the test with Everolimus + Tozasertib (first compound 0.3162 µM) and 0.53 with Everolimus + Tozasertib (first compound 1 µM).
For NCI-H650, the relative viability with Everolimus (0.01 µM) amounted to 0.7; with Everolimus (0.1 µM), 0.783; with Everolimus (0.3162 µM), 0.566; with Everolimus (1 µM), 0.583; with Everolimus + AZD7762 (first compound 0.01 µM), 0.711; with Everolimus + AZD7762 (first compound 0.03162 µM), 0.737. In addition, the relative viability with Everolimus + AZD7762 (first compound 0.1 µM) was found to be 0.755; with Everolimus + AZD7762 (first compound 0.3162 µM), 0.531; with Everolimus + AZD7762 (first compound 1 µM), 0.69; with Everolimus + Trametinib (first compound 0.01 µM), 1; with Everolimus + Trametinib (first compound 0.03162 µM), 0.687; with Everolimus + Trametinib (first compound 0.1 µM) it was 0.664. Further, the relative viability with Everolimus + Trametinib (first compound 0.3162 µM) was found to be 0.593; with Everolimus + Trametinib (first compound 1 µM) it was 0.497; with Everolimus + Tozasertib (first compound 0.01 µM), 0.738; in the test with Everolimus + Tozasertib (first compound 0.1 µM) it was 0.604; with Everolimus + Tozasertib (first compound 0.3162 µM), 0.589; in the test with Everolimus + Tozasertib (first compound 1 µM), 0.45.
In the case of LK-2, the relative viability with Everolimus (0.01 µM) is 0.844; with Everolimus (0.03162 µM), 0.554; with Everolimus (0.1 µM) it was 0.546; with Everolimus (0.3162 µM), 0.491; in the test with Everolimus (1 µM), 0.487; with Everolimus + AZD7762 (first compound 0.01 µM) it was 0.213. Moreover, the relative viability in the test with Everolimus + AZD7762 (first compound 0.03162 µM) was found to be 0.197; with Everolimus + AZD7762 (first compound 0.1 µM) it was 0.173; in the test with Everolimus + AZD7762 (first compound 0.3162 µM), 0.186; in the test with Everolimus + AZD7762 (first compound 1 µM), 0.208; in the test with Everolimus + Trametinib (first compound 0.01 µM) it was 0.688; with Everolimus + Trametinib (first compound 0.03162 µM), 0.468. Also, the relative viability with Everolimus + Trametinib (first compound 0.1 µM) was 0.425; with Everolimus + Trametinib (first compound 0.3162 µM), 0.421; in the test with Everolimus + Trametinib (first compound 1 µM) it was 0.438; with Everolimus + Tozasertib (first compound 0.01 µM) it was 0.165; in the test with Everolimus + Tozasertib (first compound 0.1 µM), 0.179; with Everolimus + Tozasertib (first compound 0.3162 µM), 0.17. The relative viability in the test with Everolimus + Tozasertib (first compound 1 µM) was found to be 0.17.
For NCI-H1993, the relative viability with Everolimus (0.01 µM) was 0.675; in the test with Everolimus (0.03162 µM), 0.61; with Everolimus (0.1 µM), 0.596; with Everolimus (0.3162 µM), 0.685; with Everolimus (1 µM) it was 0.626; with Everolimus + AZD7762 (first compound 0.01 µM), 0.461. The relative viability came to 0.505 with Everolimus + AZD7762 (first compound 0.03162 µM); 0.371 in the test with Everolimus + AZD7762 (first compound 0.1 µM); 0.472 with Everolimus + AZD7762 (first compound 0.3162 µM); 0.439 in the test with Everolimus + AZD7762 (first compound 1 µM); 0.423 with Everolimus + Trametinib (first compound 0.01 µM); 0.469 with Everolimus + Trametinib (first compound 0.03162 µM). Also, the relative viability in the test with Everolimus + Trametinib (first compound 0.1 µM) stood at 0.486; with Everolimus + Trametinib (first compound 0.3162 µM), 0.464; with Everolimus + Trametinib (first compound 1 µM), 0.536; in the test with Everolimus + Tozasertib (first compound 0.01 µM), 0.482; with Everolimus + Tozasertib (first compound 0.03162 µM) it was 0.508; with Everolimus + Tozasertib (first compound 0.1 µM) it was 0.573. The values for the relative viability with Everolimus + Tozasertib (first compound 0.3162 µM) and with Everolimus + Tozasertib (first compound 1 µM) were 0.521 and 0.485, respectively.
Regarding NCI-H838, the relative viability with Everolimus (0.01 µM) stood at 0.603; in the test with Everolimus (0.03162 µM) it was 0.561; with Everolimus (0.1 µM), 0.468; with Everolimus (0.3162 µM), 0.516; with Everolimus (1 µM), 0.51; with Everolimus + AZD7762 (first compound 0.01 µM), 0.767. For the same cell line, the relative viability in the test with Everolimus + AZD7762 (first compound 0.03162 µM) amounted to 0.777; with Everolimus + AZD7762 (first compound 0.1 µM), 0.75; in the test with Everolimus + AZD7762 (first compound 0.3162 µM), 0.831; in the test with Everolimus + AZD7762 (first compound 1 µM) it was 0.763; with Everolimus + Trametinib (first compound 0.01 µM), 0.288; with Everolimus + Trametinib (first compound 0.03162 µM) it was 0.267. The relative viability with Everolimus + Trametinib (first compound 0.1 µM) was 0.278; in the test with Everolimus + Trametinib (first compound 0.3162 µM) it was 0.263; with Everolimus + Trametinib (first compound 1 µM) it was 0.28; with Everolimus + Tozasertib (first compound 0.01 µM), 0.266; with Everolimus + Tozasertib (first compound 0.03162 µM), 0.258; in the test with Everolimus + Tozasertib (first compound 0.1 µM), 0.27. The relative viability with Everolimus + Tozasertib (first compound 0.3162 µM) was found to be 0.237; with Everolimus + Tozasertib (first compound 1 µM), 0.245.
As for NCI-H1437, the relative viability with Everolimus (0.01 µM) came to 0.875; with Everolimus (0.03162 µM), 0.795; with Everolimus (0.1 µM), 0.767; with Everolimus (0.3162 µM), 0.738; with Everolimus (1 µM), 0.621; in the test with Everolimus + AZD7762 (first compound 0.01 µM) it was 1.1. The relative viability in the test with Everolimus + AZD7762 (first compound 0.03162 µM) turned out to be 1.11; in the test with Everolimus + AZD7762 (first compound 0.1 µM) it was 1.1; with Everolimus + AZD7762 (first compound 0.3162 µM) it was 0.997; in the test with Everolimus + AZD7762 (first compound 1 µM) it was 0.875; with Everolimus + Trametinib (first compound 0.01 µM) it was 0.383; in the test with Everolimus + Trametinib (first compound 0.03162 µM), 0.348. The relative viability amounted to 0.374 with Everolimus + Trametinib (first compound 0.1 µM); 0.313 with Everolimus + Trametinib (first compound 0.3162 µM); 0.249 with Everolimus + Trametinib (first compound 1 µM); 0.421 with Everolimus + Tozasertib (first compound 0.01 µM); 0.51 with Everolimus + Tozasertib (first compound 0.03162 µM); 0.411 with Everolimus + Tozasertib (first compound 0.1 µM). For the same cell line, the figures for the relative viability in the test with Everolimus + Tozasertib (first compound 0.3162 µM) and in the test with Everolimus + Tozasertib (first compound 1 µM) were 0.403 and 0.361, respectively.
